Results from publication PMC12362587, “Untargeted Diversity-Oriented Synthesis for the Discovery of New Antitumor Agents: An Integrated Approach of Inverse Virtual Screening, Bioinformatics, and Omics for Target Deconvolution” (Journal of Medicinal Chemistry, 2025).

Legend:
[1] = target: T1, isocitrate dehydrogenase (IDH1 R132H) (Homo sapiens, UniProt O75874, R132H); test: IDH1 enzyme assay (R132H; BPS Bioscience); type: biochemical; details: top concentration 30 μM
T1 construct: purchased BPS Bioscience
Method: The assay was performed in a volume of 100 μL in a 96-well black plate. The IDH1 enzyme assay (R132H; BPS Bioscience, USA) was designed to measure IDH1 enzyme activity by measuring NADPH consumption. For activity measurement, the enzyme (final concentration, 2.5 ng per reaction), α-ketoglutarate (IDH1 substrate; final concentration, 4 mM), NADPH (final concentration, 500 μM), and compounds were incubated for 1 h at room temperature. The compounds were added at different concentrations in the reaction buffer, starting from a final concentration of 30 μM. Buffer with the same amount of DMSO (1%) was used as a negative control. After the incubation time, NADPH detection reagent was added for 5 min at room temperature. The fluorescence signals (excitation/emission, 544 nm/600 nm) were read using a PerkinElmer EnSpire multimode plate reader (PerkinElmer, Waltham, MA, USA). The experiments were performed in triplicate. The IC50 values were calculated using GraphPad Prism 8.0 software by nonlinear regression of dose–response inhibition.

A375 cells [2] = test: Annexin V-FITC staining (apoptosis, flow cytometry); type: cell-based, human; details: 72 h
Method: Given the cytotoxic role of the compounds, an annexin V-FITC staining was performed to evaluate their effects on cell apoptosis.
Apoptosis of the cells was assessed using the Annexin V-FITC/PI reagents. A375 cells (3 × 10^4 cells/well) were seeded into 24-well plates and incubated for 72 h with compounds (5, 2.5, and 1.25 μM). After treatment, the collected cells were resuspended in a 100 μL assay buffer, then 5 μL Annexin V-FITC and 1 μL PI reagents were added following an incubation for 20 min at room temperature according to the manufacturer’s protocol (Dead Cell Apoptosis Kits with Annexin V for Flow Cytometry, Thermo Fisher Scientific). Cells were analyzed with a Becton Dickinson FACScan flow cytometer using the Cell Quest software, version 4 (Franklin Lakes, NJ, USA).

[3] = target: T2, Fibroblast Growth Factor Receptor 1 (FGFR1) (Homo sapiens, UniProt P11362); test: Kinase Enzymatic Radiometric [10 uM ATP] KinaseProfiler LeadHunter Assay; type: biochemical; details: Eurofins, read-out: EC50 or IC50, FGFR1
T2 construct: Eurofins (contract assay)
Source text: (§1) For displacement assays on G-protein coupled receptor 55 (GPR55), Vasopressin V2 receptor (V2R), Adenosine A1 receptor (A1AR), Fibroblast growth factor receptor 1 (FGFR1), Vascular endothelial growth factor receptor 2 (VEGFR2), Platelet-derived growth factor receptor beta (PDGFRB), Vascular endothelial growth factor receptor 1 (VEGFR1), Thromboxane Synthase (TXS) and Phosphodiesterase 10A (PDE10A), we commissioned the Eurofins company which employed its specific experimental methods, accessible at the link: https://www.eurofins.com/.

[4] = target: T3, Platelet-Derived Growth Factor Receptor-Beta (PDGFRB) (Homo sapiens, UniProt P09619); test: as above; type: biochemical; details: Eurofins, read-out: EC50 or IC50, PDGFRB
T3 construct: Eurofins (contract assay)
Source text: as §1

[5] = target: T4, Vascular Endothelial Growth Factor Receptor-1 Flt-1 (VEGFR1) (FLT1) (Homo sapiens, UniProt P17948); test: as above; type: biochemical; details: Eurofins, read-out: EC50 or IC50, VEGFR1 (FLT1)
T4 construct: Eurofins (contract assay)
Source text: as §1

[6] = target: T5, Vascular Endothelial Growth Factor Receptor (VEGFR-2)/KDR (Homo sapiens, UniProt P35968); test: as above; type: biochemical; details: Eurofins, read-out: EC50 or IC50, VEGFR-2/KDR
T5 construct: Eurofins (contract assay)
Source text: as §1

[7] = target: T6, serine/threonine-protein kinase B-raf (V600E) (Homo sapiens, UniProt P15056, V600E); test: B-Raf kinase assay (V600E; BPS Bioscience); type: biochemical; details: top concentration 30 μM, read-out: EC50 or IC50, serine/threonine-protein kinase B-raf
T6 construct: purchased BPS Bioscience
Method: The assay was performed in a volume of 50 μL in a 96-well white plate. The B-Raf kinase assay (V600E; BPS Bioscience, USA) was designed to measure B-Raf kinase activity by the use of Kinase-Glo MAX (Promega, USA), which detects ATP residual following the kinase reaction. For activity measurement, the kinase (final concentration, 2 ng per reaction), Raf substrate and ATP (final concentration, 500 μM), and compounds were incubated for 45 min at 30 °C. The compounds were added at different concentrations in the reaction buffer, starting from a final concentration of 30 μM. Buffer with the same amount of DMSO (1%) was used as a negative control. After the incubation time, Kinase-Glo MAX detection reagent was added for 15 min at room temperature. The generated luminescent signal was read in end point mode using a PerkinElmer AlphaScreen multimodal plate reader (PerkinElmer, Waltham, MA, USA). Experiments were performed in triplicate. IC50 values were calculated with GraphPad Prism 8.0 software by nonlinear dose–response inhibition regression.

A375 cells [8] = test: Intracellular ROS measurement (DCFH-DA); type: cell-based, human; details: 10, 5, 2.5 μM for 2–8 h
Method: Cells were treated with compounds 31 and 63 (10, 5, and 2.5 μM) for 2–8 h, and ROS levels were subsequently measured.
The intracellular ROS generation was detected using 10 μM DCFH-DA. This compound is oxidized by ROS to fluorescent […] (DCF) inside the cells. A375 cells were seeded (5 × 10^3 cells/well) in a volume of 100 μL per well in black 96-well OptiPlate (PerkinElmer, USA), allowing them to adhere for 24 h. After, the cells were incubated for 2, 4, and 8 h with compounds (10, 5, and 2.5 μM). Subsequently, the cells were washed twice with PBS and a staining solution containing DCFH-DA in serum-free medium without phenol red was added for 30 min at 37 °C in the dark. The stained cells were washed, and the fluorescence signals (excitation/emission 485 nm/535 nm) were read using a PerkinElmer EnSpire multimode plate reader and expressed as DCFH fluorescence intensity.

T6 sequence (P15056 whole entry V600E): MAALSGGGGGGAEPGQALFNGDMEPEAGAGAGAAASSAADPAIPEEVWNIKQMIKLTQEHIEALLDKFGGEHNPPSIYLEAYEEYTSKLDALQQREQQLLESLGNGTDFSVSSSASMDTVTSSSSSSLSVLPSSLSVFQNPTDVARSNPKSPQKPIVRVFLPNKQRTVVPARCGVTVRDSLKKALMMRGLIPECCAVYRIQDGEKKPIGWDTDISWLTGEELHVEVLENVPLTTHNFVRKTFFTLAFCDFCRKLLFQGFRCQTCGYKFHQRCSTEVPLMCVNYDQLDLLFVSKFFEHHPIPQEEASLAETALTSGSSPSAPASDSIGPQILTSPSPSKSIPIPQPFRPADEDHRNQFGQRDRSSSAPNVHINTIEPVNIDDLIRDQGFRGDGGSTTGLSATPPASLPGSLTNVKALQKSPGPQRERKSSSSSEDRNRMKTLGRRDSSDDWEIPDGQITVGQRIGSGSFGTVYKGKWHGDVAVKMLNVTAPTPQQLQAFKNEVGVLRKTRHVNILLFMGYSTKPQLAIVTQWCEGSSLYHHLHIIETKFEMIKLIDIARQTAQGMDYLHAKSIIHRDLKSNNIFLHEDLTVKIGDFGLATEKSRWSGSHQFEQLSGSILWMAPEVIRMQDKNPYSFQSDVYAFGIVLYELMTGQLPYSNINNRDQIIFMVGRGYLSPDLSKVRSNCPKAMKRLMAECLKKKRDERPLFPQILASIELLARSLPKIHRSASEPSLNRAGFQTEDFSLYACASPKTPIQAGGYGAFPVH
T2 sequence (P11362 22-822): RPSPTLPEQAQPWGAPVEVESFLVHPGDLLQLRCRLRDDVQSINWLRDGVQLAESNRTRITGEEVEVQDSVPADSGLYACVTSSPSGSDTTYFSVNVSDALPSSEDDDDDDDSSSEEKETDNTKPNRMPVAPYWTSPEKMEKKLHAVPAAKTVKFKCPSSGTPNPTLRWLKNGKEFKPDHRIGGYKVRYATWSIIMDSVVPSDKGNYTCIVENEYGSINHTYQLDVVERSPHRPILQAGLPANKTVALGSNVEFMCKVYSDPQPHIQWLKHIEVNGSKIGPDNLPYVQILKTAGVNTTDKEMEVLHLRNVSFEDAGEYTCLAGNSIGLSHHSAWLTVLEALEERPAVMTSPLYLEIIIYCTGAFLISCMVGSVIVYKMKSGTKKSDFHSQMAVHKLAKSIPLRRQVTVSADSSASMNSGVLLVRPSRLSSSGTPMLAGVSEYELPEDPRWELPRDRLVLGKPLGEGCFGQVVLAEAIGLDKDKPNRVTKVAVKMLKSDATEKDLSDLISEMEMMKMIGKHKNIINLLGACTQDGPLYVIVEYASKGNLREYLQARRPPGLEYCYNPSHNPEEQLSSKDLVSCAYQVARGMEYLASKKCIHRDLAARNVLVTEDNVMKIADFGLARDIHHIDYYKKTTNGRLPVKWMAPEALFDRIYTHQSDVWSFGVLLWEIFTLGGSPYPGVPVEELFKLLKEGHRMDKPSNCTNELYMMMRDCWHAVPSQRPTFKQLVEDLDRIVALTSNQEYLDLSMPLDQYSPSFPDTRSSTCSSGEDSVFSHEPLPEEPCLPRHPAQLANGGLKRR
T1 sequence (O75874 whole entry R132H): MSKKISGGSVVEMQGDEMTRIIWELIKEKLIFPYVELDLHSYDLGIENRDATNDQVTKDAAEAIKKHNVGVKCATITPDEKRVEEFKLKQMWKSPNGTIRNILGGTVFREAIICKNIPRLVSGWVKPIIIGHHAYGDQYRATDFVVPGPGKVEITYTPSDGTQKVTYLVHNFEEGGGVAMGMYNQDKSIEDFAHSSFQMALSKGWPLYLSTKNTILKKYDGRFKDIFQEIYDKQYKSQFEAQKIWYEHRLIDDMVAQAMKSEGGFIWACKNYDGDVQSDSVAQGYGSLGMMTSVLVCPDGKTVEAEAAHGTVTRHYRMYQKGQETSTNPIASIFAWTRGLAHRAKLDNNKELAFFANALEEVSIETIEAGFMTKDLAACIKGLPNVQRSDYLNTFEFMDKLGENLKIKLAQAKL
T3 sequence (P09619 33-1106): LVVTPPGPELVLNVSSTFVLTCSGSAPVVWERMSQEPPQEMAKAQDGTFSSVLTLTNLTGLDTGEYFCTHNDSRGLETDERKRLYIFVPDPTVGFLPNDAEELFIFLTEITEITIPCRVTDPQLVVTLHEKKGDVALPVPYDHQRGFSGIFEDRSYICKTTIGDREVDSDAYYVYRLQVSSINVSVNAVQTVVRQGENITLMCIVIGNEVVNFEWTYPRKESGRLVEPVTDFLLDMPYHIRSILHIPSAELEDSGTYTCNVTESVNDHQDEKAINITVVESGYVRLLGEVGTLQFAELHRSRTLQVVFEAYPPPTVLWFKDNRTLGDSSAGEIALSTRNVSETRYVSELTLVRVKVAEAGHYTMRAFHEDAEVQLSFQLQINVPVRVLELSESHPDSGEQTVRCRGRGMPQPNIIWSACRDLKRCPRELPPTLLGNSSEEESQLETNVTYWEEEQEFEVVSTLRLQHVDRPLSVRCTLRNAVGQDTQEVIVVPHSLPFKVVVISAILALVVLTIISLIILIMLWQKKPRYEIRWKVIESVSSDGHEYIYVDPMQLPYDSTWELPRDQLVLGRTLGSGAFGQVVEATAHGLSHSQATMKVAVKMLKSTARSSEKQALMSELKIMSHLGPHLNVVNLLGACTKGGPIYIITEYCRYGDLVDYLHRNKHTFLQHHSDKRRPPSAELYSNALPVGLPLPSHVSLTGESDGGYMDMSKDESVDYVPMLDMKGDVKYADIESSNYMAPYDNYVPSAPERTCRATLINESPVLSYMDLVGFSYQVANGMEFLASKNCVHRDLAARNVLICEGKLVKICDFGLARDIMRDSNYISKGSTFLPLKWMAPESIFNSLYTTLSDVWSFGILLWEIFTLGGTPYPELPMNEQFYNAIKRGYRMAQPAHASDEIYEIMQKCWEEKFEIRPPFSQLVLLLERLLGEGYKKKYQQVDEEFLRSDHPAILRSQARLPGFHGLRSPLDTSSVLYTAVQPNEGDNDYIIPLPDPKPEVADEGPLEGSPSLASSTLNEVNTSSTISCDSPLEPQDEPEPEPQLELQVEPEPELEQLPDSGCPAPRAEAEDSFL
T4 sequence (P17948 27-1338): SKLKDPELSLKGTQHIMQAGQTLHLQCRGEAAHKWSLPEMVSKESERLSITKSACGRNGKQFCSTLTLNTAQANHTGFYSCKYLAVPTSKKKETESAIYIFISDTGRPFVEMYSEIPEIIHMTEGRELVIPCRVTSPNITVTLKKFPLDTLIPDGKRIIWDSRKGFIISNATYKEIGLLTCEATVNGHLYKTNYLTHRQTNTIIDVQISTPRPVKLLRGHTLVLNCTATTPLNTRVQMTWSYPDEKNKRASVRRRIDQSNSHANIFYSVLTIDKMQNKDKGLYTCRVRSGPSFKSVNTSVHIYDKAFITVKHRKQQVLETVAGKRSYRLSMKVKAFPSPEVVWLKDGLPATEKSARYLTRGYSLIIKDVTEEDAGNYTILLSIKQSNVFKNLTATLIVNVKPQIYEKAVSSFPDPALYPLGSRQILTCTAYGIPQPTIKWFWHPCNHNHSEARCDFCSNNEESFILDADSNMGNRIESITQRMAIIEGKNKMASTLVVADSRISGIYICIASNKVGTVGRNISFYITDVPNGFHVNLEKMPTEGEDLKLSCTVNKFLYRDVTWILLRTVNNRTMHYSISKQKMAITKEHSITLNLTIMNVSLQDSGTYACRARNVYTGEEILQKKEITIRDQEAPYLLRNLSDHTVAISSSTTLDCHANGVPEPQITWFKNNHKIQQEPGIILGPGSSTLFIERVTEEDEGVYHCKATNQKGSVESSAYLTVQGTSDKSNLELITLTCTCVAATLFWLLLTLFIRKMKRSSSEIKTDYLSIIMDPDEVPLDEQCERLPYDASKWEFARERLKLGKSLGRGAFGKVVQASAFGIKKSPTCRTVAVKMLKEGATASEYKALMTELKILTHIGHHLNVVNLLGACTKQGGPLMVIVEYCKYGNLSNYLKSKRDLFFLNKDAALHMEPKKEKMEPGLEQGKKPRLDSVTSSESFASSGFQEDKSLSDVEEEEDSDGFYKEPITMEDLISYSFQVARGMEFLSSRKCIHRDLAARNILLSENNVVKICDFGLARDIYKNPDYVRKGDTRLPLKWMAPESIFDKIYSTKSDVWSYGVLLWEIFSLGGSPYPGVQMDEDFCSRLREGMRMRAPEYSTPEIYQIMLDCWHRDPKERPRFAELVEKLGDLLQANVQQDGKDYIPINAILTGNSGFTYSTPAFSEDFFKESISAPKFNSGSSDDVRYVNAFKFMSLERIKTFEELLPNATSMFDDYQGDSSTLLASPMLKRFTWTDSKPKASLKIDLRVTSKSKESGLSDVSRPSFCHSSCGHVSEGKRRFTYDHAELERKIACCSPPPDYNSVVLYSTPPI

`CC(C)C[C@H]1C(=O)N(Cc2ccc(C(F)(F)F)cc2)c2ccccc2C(=O)N1Cc1ccc(C(F)(F)F)cc1` [Compound 31, (S)-3-Isobutyl-1,4-bis(4-(trifluoromethyl)benzyl)-3,4-dihydro-1H-benzo[e][1,4]diazepine-2,5-dione] was tested, and the IC50 ([1]; read-out: EC50 or IC50, isocitrate dehydrogenase) was 14.9 ± 2.12 µM, the “percentage of apoptotic cells” value (A375 cells [2]; 1.25 μM) was 20.40 ± 4.56% and the “percentage of apoptotic cells” value (A375 cells [2]; 2.5 μM) was 81.10 ± 3.89%. For the same molecule, the “percentage of apoptotic cells” value (A375 cells [2]; 5 μM) was 88.68 ± 2.10%, the IC50 [3] was ≥ 30 µM and the IC50 [4] was ≥ 30 µM. The IC50 [5] was ≥ 30 µM, the IC50 [6] was ≥ 30 µM and the IC50 [7] was ≥ 30 µM. The “intracellular ROS levels” value (A375 cells [8]) was “significant concentration-dependent increase in ROS levels”.

In the case of `CC(C)C[C@@H](C(=O)OCc1ccccc1)N1Cc2ccccc2NC1=O` [Compound 63, Benzyl (S)-4-Methyl-2-(2-oxo-1,4-dihydroquinazolin-3(2H)-yl)pentanoate], the “EC50 or IC50, isocitrate dehydrogenase” value [1] is reported as “not soluble”, the “percentage of apoptotic cells” value (A375 cells [2]; 1.25 μM) is reported as 16.52 ± 3.24% and the “percentage of apoptotic cells” value (A375 cells [2]; 2.5 μM) is reported as 58.90 ± 1.89%. For the same molecule, the “percentage of apoptotic cells” value (A375 cells [2]; 5 μM) was 71.25 ± 0.11%, the IC50 [3] was ≥ 30 µM and the IC50 [4] was ≥ 30 µM. The IC50 [5] was ≥ 30 µM, the IC50 [6] was ≥ 30 µM and the IC50 [7] was ≥ 30 µM. For the same molecule, the “intracellular ROS levels” value (A375 cells [8]) was “delayed and more moderate effect than compound 31”.
